Test results reported in US20120101230A1, “HIGH-DENSITY POLYMER SURFACE COATING TO IMMOBILIZE CHEMICAL OR BIOLOGICAL MOLECULES” (priority 2009, published 2012).
Where a name gives a salt, the structure may show the parent alone.

What was measured:
[1] = target: T1, recombinant human trypsin (Homo sapiens, UniProt P07477); assay: Small molecule binding to trypsin-immobilized surface, PWV shift
T1 construct: purchased Polymum Lot#H149L091.1
Description: (§1) Trypsin was tested to determine what other proteins could be successfully immobilized on high-density polymer surfaces. Like above, high-density polymer surfaces were activated by adding 0.34 M EDC/10 mM NHS in water for 10 min, followed by removing the solution. 50 μg/ml trypsin in non-amine containing buffer was added to the wells, and was incubated for up to around 700 min, followed by a wash first with acetic buffer, then PBS. The trypsin was recombinant human protein from Polymum Lot#H149L091.1. The results of trypsin binding over time, as a function of delta PWV, are shown in FIG. 14, as well as an NHS control. 90% of the protein was immobilized within less than 2 hr. Benzamidine was then added for binding to the immobilized trypsin by adding benzamidine at a final concentration of 67 μM in PBS, pH 7.4. Benzamidine has a molecular weight of 120.15, and an expected delta PWV or PWV shift of 36 pm.
(§2) Antipain was then added for binding to the low COOH density surfaces. 49.2, 12.3, 3.1, and 1 μM antipain dihydrochloride in PBS was prepared from a microbial source and was added to the 3.8 nm delta PWV shift from trypsin immobilization. 49.2 μM antipain was also added to no trypsin control wells (N=4). […] The theoretical shift of antipain of 1:1 binding on 3.8 nm delta PWV shift trypsin surface is […]. The control, 49.2 μM antipain in a well with no trypsin immobilization, had […] bulk or NSB PWV shift.
(§3) Leupeptin was also added for binding to the low COOH density surfaces. 88, 22, 5.5, and 0 μM leupeptin dihydrochloride solutions in PBS were prepared and were added to the 3.8 nm delta PWV shift trypsin immobilization surfaces. 88 μM leupeptin was also added to no trypsin control wells (N=2). […] The theoretical shift of leupeptin of 1:1 binding on 3.8 nm delta PWV trypsin is […]. The control 88 μM leupeptin with no trypsin immobilization had 12 nm bulk or NSB shift.

[2] = Trypsin immobilization on high-density polymer surfaces, delta PWV; assay type: binding; details: for course of immobilization: 10 mM acetate buffer pH 5.0, 3 hr
Description: as §1
Trypsin binding was also measured on both high and low COOH density surfaces. 100 μg of human recombinant trypsin in 10 mM acetate buffer pH 5.0 was immobilized on either a high or low COOH density surface for 3 hr.

[3] = Bulk or NSB PWV shift in no trypsin control wells; details: 88 μM leupeptin, no trypsin immobilization
Description: as §2, §3

[4] = Streptavidin/avidin immobilization on high-density polymer (PAA) surfaces, SWS biosensor PWV shift; assay type: binding
Description: (§4) In order to immobilize protein to the novel surfaces, the high-density polymer surfaces of Examples 2 and 3 were activated by adding 0.34 M EDC/10 mM NHS in water for 10 min, followed by removing the solution. In an initial test of protein immobilization capability and protein activity following immobilization, biotin binding to immobilized streptavidin was used—20 μL of either 200 μg/ml avidin or streptavidin in a non-amine containing buffer (10 mM acetate buffer, pH 5.0) were added to the surface and incubated for 3 hr, followed by a wash first with the non-amine containing buffer, then PBS. Biotin was then added for binding to the immobilized avidin or streptavidin by using a 20 μL of a biotin solution in PBS to result in a final Biotin concentration of approximately 58 μM (N=4).
The initial test was followed up by reacting different concentrations of avidin or streptavidin with the different high-density polymer surfaces.
(§5) 20 μL of either 0, 50, or 200 μg/ml avidin or streptavidin in a non-amine containing buffer were added to the wells after they were pre-activated for 10 min with EDC/NHS, and incubated for 3 hr. This was then followed by a wash first with the non-amine containing buffer. Biotin was then added for binding to the immobilized avidin or streptavidin by adding 20 μL of a biotin solution in PBS to result in a final Biotin concentration of approximately 58 μM (N=4).

avidin = avidin (Gallus gallus, UniProt P02701); assay: Biotin binding to immobilized avidin on PAA surfaces
Sequence of avidin (P02701 25-152, species assumed): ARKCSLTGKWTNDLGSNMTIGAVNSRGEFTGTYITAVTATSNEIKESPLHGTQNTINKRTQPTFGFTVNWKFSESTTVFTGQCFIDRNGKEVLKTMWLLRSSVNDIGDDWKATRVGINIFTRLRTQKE
Description: as §4, §5

streptavidin = streptavidin (Streptomyces avidinii, UniProt P22629); assay: Biotin binding to immobilized streptavidin on PAA surfaces
Sequence of streptavidin (P22629 25-183, species assumed): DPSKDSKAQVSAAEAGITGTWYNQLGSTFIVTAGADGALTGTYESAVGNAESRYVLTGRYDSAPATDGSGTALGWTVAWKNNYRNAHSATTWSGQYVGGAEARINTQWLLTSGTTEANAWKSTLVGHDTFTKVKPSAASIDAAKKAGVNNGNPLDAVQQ
Description: as §4, §5

[5] = PAA 100K, high COOH density surface, coated with 1/6 dilution NHS/EDC (theta condition) compared to the other dilutions
[6] = PAA 100K, low COOH density surface, coated with 1/6 dilution NHS/EDC (theta condition) compared to the other dilutions
[7] = PAA 250K, high COOH density surface, coated with 1/6 and 1/8 dilution NHS/EDC (theta condition) compared to the other dilutions
[8] = PAA 250K, low COOH density surface, coated with 1/6 and 1/8 dilution NHS/EDC (theta condition) compared to the other dilutions
[9] = PAA coated under theta condition, biotin approximately 58 μM
[10] = low COOH density surfaces (versus high)

Compound: N=C(N)c1ccccc1 [Benzamidine]
- expected delta PWV or PWV shift ([1]; benzamidine 67 μM in PBS, pH 7.4): 36 pm

Compound: trypsin
- time within which 90% of the protein was immobilized ([2]; 50 μg/ml trypsin in non-amine containing buffer): less than 2 hr
- delta PWV of trypsin immobilization ([2]; high COOH density surface): 7.2 nm
- course of immobilization ([2]; high COOH density surface): immobilized rapidly
- delta PWV of trypsin immobilization ([2]; low COOH density surface): 3.8 nm
- course of immobilization ([2]; low COOH density surface): slow but rising constantly

Compound: CC(=O)N[C@@H](CC(C)C)C(=O)N[C@@H](CC(C)C)C(=O)N[C@H](C=O)CCCNC(=N)N [leupeptin, leupeptin dihydrochloride]
- binding to immobilized trypsin (titration) ([1]; 3.8 nm delta PWV trypsin on low COOH density surface): Titration of leupeptin was observed
- binding to immobilized trypsin ([1]; 7.2 nm delta PWV trypsin on high COOH density surface): No positive result was observed
- theoretical shift of 1:1 binding ([1]; on 3.8 nm delta PWV shift trypsin surface): 66 nm
- bulk or NSB shift [3]: 12 nm

Compound: streptavidin
- protein immobilization (PWV) [4, 5]: More streptavidin was immobilized
- protein immobilization (PWV) [4, 6]: More streptavidin was immobilized
- protein immobilization (PWV) [4, 7]: More streptavidin was immobilized
- protein immobilization (PWV) [4, 8]: More streptavidin was immobilized

Compound: O=C(O)CCCC[C@@H]1SC[C@@H]2NC(=O)N[C@@H]21 [Biotin]
- biotin binding (avidin; [9]): higher biotin binding
- activity of avidin for biotin interaction (avidin; [10]): more activity
- biotin binding (streptavidin; [9]): higher biotin binding
- activity of streptavidin for biotin interaction (streptavidin; [10]): more activity

Compound: avidin
- protein immobilization (PWV) [4, 5]: More avidin was immobilized
- protein immobilization (PWV) [4, 6]: More avidin was immobilized
- protein immobilization (PWV) [4, 7]: More avidin was immobilized
- protein immobilization (PWV) [4, 8]: More avidin was immobilized
